Data: patent US6342219B1 (Board of Regents, The University of Texas System, priority 1999, dated 2002)

Columns and labels:
[1] = system: A673 rhabdomyosarcoma; test: Treatment of established A673 tumors; set-up: species or system mice; conditions: mouse, in vivo
[2] = system: human tumors from cancer patients; test: Immunohistochemistry, endothelial cell staining, human tumors; format: binding; set-up: key: −, negative; +/−, very weak; 1+, weak; 2+, moderate; 3+, strong; 4+, very strong; conditions: acetone fixed frozen sections
Description: Tumors were snap frozen in liquid nitrogen and stored at −70° C. Frozen samples of tumor specimens from patients were obtained from the National Cancer Institute Cooperative Human Tissue Network (Southern Division, Birmingham, Ala.). Immunohistochemistry was performed as described by Burrows et al. (1995).

[3] = system: VEGFR2 in PAE/KDR cells; test: VEGF-induced phosphorylation of VEGFR2 (immunoprecipitation and Western blot); format: cell-based, porcine; conditions: antibodies at 100 nM, 15 min
Description: PAE/KDR, PAE/FLT, and bEND.3 cells were grown to 80-90% confluency in 100 mm tissue dishes in media containing 5% serum. The cells were then serum starved for 24 hours in media containing 0.1% serum. After pretreatment with 100 […] in PBS for 30 min, the cells were incubated with 5 nM (200 ng/ml) VEGF165, 5 nM (100 ng/ml) bFGF (R&D Systems, Minneapolis, Minn.), or A673 tumor conditioned media in the presence or absence of control or test antibodies for additional 15 min.
The cells were then washed with ice-cold PBS containing 10 mM EDTA, 2 mM sodium fluoride, and 2 mM sodium orthovanadate and lysed in lysis buffer (50 mM Tris, 150 mM NaCl, 1% Nonidet P-40, 0.25% sodium deoxycholate, 0.1% CHAPS, 5 mM EDTA, 1.5 mM MgCl2, 2 mM sodium fluoride, 2 mM sodium orthovanadate, 10% glycerol and protease inhibitors (Complete Protease Inhibitor Cocktail tablets, Boehringer Mannheim)). The lysates were clarified by centrifugation and resulting supernatant used for immunoprecipitation.
The reactions using the chicken anti-FLT-1 antibody were subsequently incubated with a bridging goat anti-chicken antibody (Kirkegaard and Perry Laboratories, Inc.) for 1 h at 4° C. […]

[4] = system: KDR on ABAE cells; test: 125I-VEGF binding studies on KDR expressing endothelial cells; set-up: species or system bovine
[5] = system: VEGFR2 (sFlk-1); test: ELISA of VEGF binding to VEGFR2-coated wells; set-up: species or system mouse
Description: FIG. 2. […] The plate was then incubated with rabbit anti-VEGF (A-20, Santa Cruz Biotechnology, Inc.) at 1 μg/ml and developed using a peroxidase conjugated goat anti-rabbit antibody. Assays were performed in triplicate. Mean percent binding in the absence of antibody is shown, together with the standard deviation.
The assay was also performed by coating wells of a microtiter plate with either control or test IgG.

[6] = system: NCI-H358 NSCLC; test: In vivo tumor growth inhibition, newly implanted NCI-H358; set-up: species or system nu/nu mice
Description: FIG. 3A and FIG. 3B. […] FIG. 3A: 1×10^7 NCI-H358 NSCLC cells were injected subcutaneously into nu/nu mice on day 0. FIG. 3B: 5×10^6 A673 rhabdomyosarcoma cells were injected subcutaneously into nu/nu mice on day 0. Mice were injected i.p. with the indicated IgG on day 1 and 2 times/week thereafter. […] Tumors were measured 2-3 times per week. Mean and standard error is shown for the duration of the study in FIG. 3A, while data for the last day of the study (day 26) is shown in FIG. 3B.
Nu/nu mice were injected subcutaneously with either 1×10^7 NCI-H358 NSCLC cells or 5×10^6 A673 rhabdomyosarcoma cells on day 0. […] The tumors were then measured twice per wk for a period of approximately six wk for the NCI-H358 bearing mice and four wk for the A673 bearing mice. Tumor volume was calculated according to the formula: volume=L×W×H, where L=length, W=width, H=height.

[7] = system: NCI-H358 tumors; test: Prolonged treatment of established NCI-H358 xenografts (FIG. 5A); format: in vivo, mice
Description: FIG. 5A and FIG. 5B. […] Treatments (T) were 100 μg of the IgG given i.p., except for the initial treatment that consisted of 500 μg of the IgG given i.v. Mean tumor volume along with the SEM is shown. At the end of the study (day 116), the mice were sacrificed and the tumors dissected out and weighed. […] The mice were treated every other day as indicated (T). […] Mean tumor volume along with the SE is shown.
In this study, spontaneous regressions were less pronounced. […] The 3E7 treated mice began treatment with a mean tumor volume of 428 mm^3 and rose to a volume of 1326 mm^3 after approximately 14 wk, an increase of […] in volume.

2C3: anti-VEGF monoclonal antibody, IgG2a, k, produced by hybridoma ATCC PTA 1595; blocks VEGF binding to VEGFR2 but not VEGFR1 [Clone 2C3]
Effect on growth of established A673 tumors [1]: significantly slowed the growth
Endothelial Cell Staining, Hu Tumor (various) [2]: −
Blocking of VEGF-induced phosphorylation of VEGFR2 [3]: block
Blocking of 125I-VEGF binding to KDR [4]: blocks VEGF from binding to KDR in a concentration dependent manner
Blocks VEGF from binding to VEGFR2 [5]: Yes
Effect on VEGF binding to VEGFR2 in ELISA ([5]; 100-1000 fold excess): blocked
Reduction in VEGF binding to VEGFR2 ([5]; 100 fold molar excess over VEGF): about 74%
VEGF bound to VEGFR2-coated wells, of the amount bound in the absence of antibody ([5]; 1000-fold molar excess over VEGF (1 nM VEGF)): ~19%
Reduction in VEGF binding to VEGFR2 ([5]; 1000 fold molar excess over VEGF): about 81%
Tumor growth retardation in the NCI-H358 tumor model at the lower dose ([6]; 10 μg dose): less marked
Final tumor volume, NCI-H358 ([6]; 100 μg i.p. 2 times per wk from day 1, controls approximately 1000 mm^3): approximately 150 mm^3
Mean tumor volume after approximately 14 wk of treatment ([7]; 100 μg, at start 480 mm^3 (2C3), 428 mm^3 (3E7)): 84 mm^3
Decrease in mean tumor volume ([7]; after approximately 14 wk): approximately 80%
Mean tumor weight at the end of the study ([7]; day 116): 0.054 g
